Source: patent US20040043462A1, “Chamber for in vivo screening of angiogenesis and tumor growth modulating compounds” (priority 2003, published 2004)
Entries after “also recorded” stand apart in the source; their conditions may differ.

Legend:
TGF β1 = TGF β1 ELISA on F-ZC tissue lysates; format: in vivo, Fischer 344 rats
Experimental: (§1) Schedule and Dose of Drug Administration.
TGF β1 ELISA. Active TGF β1 ELISA was carried out in triplicate using DUOSET® kit (DY240, Genzyme Corporation, Cambridge, Mass.) as described previously (Danielpour, D., J Immunol Methods (1993) 158(1):17-25) with tissue lysates from chamber contents generated as detailed above. Latent form of […] was converted to immunoreactive form to ascertain total […] content. The data is shown as pg per mg of protein in the tissues.

[1] = tested on: tumor cells embedded in fibrin gel (T-ZC); experiment: Tumor cell-containing chambers (T-ZC) implanted in animals, systemic SUGEN 5416 treatment; format: in vivo
Experimental: A tumor cell chamber, or tumor Z-chamber (T-ZC) is prepared by adding tumor cells to the fibrinogen solution before adding the solution to the chamber. The tumor cells are embedded in fibrin gel. Implantation is accomplished by making two 2 cm long incisions on the backs of the animals, followed by making blunt dissections on both sides to establish a pocket in the subcutaneous space. The chambers are inserted into these pockets. Clips are used to close the incision in rats and sutures are used for mice. A topical antibiotic, such as that sold under the registered trademark NEOSPORIN® by Glaxo-Wellcome, Inc., is applied over the incision. To harvest the chambers, a long incision is made on the backs of the animals. The surrounding fascia is observed and noted. The chambers are pushed from outside the animal and pulled out. Pictures are taken at this stage to observe differences, if any, between tissue within and encompassing the chamber and the surrounding tissue. The mesh and issue agglomerated thereon are cut from the chamber with scalpel (preferably a #11 blade) and then processed in accordance with a desired analysis approach.

[2] = tested on: wound healing response (granulation tissue, neovascularization) in F-ZC; experiment: Fibrin Z-chamber (F-ZC) wound healing assay, systemic SU5416 treatment; format: in vivo, Fischer 344 rats; details: SUGEN 5416 20 mg/kg, control about 45, p=0.0009
[3] = tested on: wound healing response (granulation tissue, neovascularization) in F-ZC; experiment: as above; format: in vivo, Fischer 344 rats; details: for residual D-dimer retention: SU5416 vs control (FIG. 16); for body weight loss: SU5416 20 mg/kg, F-ZC implantation, 10-12 days, vs control (FIG. 13)
Experimental: as §1
Fibrin Z-Chambers (F-ZC): In accordance with the present invention, F-ZC were employed in a fibrin gel based in vivo assay. In F-ZC, fibrinogen and thrombin are added to a dual porous chamber through a port and chambers are then implanted in the subcutaneous tissue of the rats and harvested at day 12 post-implantation to assess the wound healing response generated due to presence of fibrin. These chambers are constructed from customized PLEXIGLAS® rings with internal diameter of 10 mm and have an access port drilled on the side. The two open surfaces are covered by nylon mesh (pore size 180 microns, # NY8H04700, Millipore, Mass.) glued to the rings. Fibrinogen (# 341578, CalBiochem, La Jolla, Calif.) was prepared in DMEM (# 11995-065, Gibco BRL, Rockville, Md.) at a concentration of 4 mg/ml and was converted to fibrin by addition of thrombin (#605160, CalBiochem, La Jolla, Calif.) inside the chambers.
Fischer 344 rats were anesthetized, hair removed using the clippers and the surface was surgically prepared. Two small midline skin incisions were made in the dorsal region about 4 cm apart. Fascia was blunt dissected and small pockets were created on both sides along the midline incision. Thus, four F-ZCs were implanted per animal.
Quantitation of Immunohistochemistry. Microvessel density (MVD) was calculated as described by Weidner (Weidner, N., et al., J Natl Cancer Inst (1992) 84(24):1875-87). Briefly, three hot spots or areas with highest visible blood vessels density (marked by the vessel marker) per sample section were selected and number of blood vessels counted at a high power field (400×). The data was then pooled for the control and treated tissues to arrive at the mean values for each group. Collagen was semi-quantitatively estimated on a scale of 0-4. Zero was described as negligible staining, 1 as weak, 2 as moderate, 3 as strong and 4 as complete staining as observed in dermis.
D-Dimer Measurements. The MINIQUANT™ D-Dimer (Cat # 1447, Biopool AB of Umea, Sweden) assay was used to measure residual D-Dimer in the chamber content lysates generated as detailed above. […] The measurements were carried out in duplicate. Each measurement is from pooled tissue for the treatment and control groups.

[4] = tested on: wound healing response (granulation tissue) in fibrin-containing chambers; experiment: F-ZC wound healing response with chamber administration of angiostatin; format: in vivo
Experimental: FIGS. 20A and 20B are photographs showing gross examination of fibrin-containing chambers of the present invention in which angiostatin was administered in laboratory animals in accordance with techniques described herein above for Laboratory Examples 1-9. […] Fibrin is inherently pale yellow in color and lack of blood vessels in angiostatin treated chambers results in the paler appearance of the chambers.
FIGS. 20C and 20D are photomicrographs showing depth (represented by line with arrowheads at each end) of granulation tissue developed inside fibrin-containing chambers of the present invention. Depth granulation was used as a measure for the healing response.
Scale=depth of granulation tissue (×10 microns).

[5] = Table 1, SU5416 vs control, n = 10

`Cc1cc(C)c(C=C2C(=O)Nc3ccccc32)[nH]1` [SU5416, 3-(2,4-Dimethylpyrrol-5-yl)methylene-2-indolinone] was tested, and the “reduction in active TGF β1 level” value (TGF β1; F-ZC tissue, SU5416 20 mg/kg IP vs controls) was 90%, the “total TGF β1” value (TGF β1; F-ZC tissue, SU5416 treated vs controls) was “increased” and the “Active TGF β1” value (TGF β1; Table 1, F-ZC tissue lysates, SU5416, control 1.45 ± 0.1) was 0.11 ± 0.05 pg per mg of protein. The “Latent TGF β1” value (TGF β1; Table 1, F-ZC tissue lysates, SU5416, control 7.72 ± 0.5) was 11.85 ± 0.8 pg per mg of protein, the “Difference, Active TGF β1” value (TGF β1; [5]) was 93%, n = 10 and the “Difference, Latent TGF β1” value (TGF β1; [5]) was 35%, n = 10. For the same molecule, the body weight loss ([1]; SUGEN 5416 20 mg/kg systemic, T-ZC implantation, vs control animals (FIG. 9), 20 mg/kg) was “no significant body weight loss; also recorded: no significant body weight lost”, the tumor growth delay ([1]; SUGEN 5416 20 mg/kg systemic, T-ZC, p<0.0001 (FIG. 10)) was “significant tumor growth delay” and the “increase in tumor volume” value ([1]; SUGEN 5416 20 mg/kg systemic, T-ZC, control about 90% (FIG. 10)) was 40%. The “microvessel density (MVD) change” value ([1]; T-ZC, SUGEN 5416 20 mg/kg, p=0.11 (FIG. 11)) was “did not change”, the “MVD per high power (200×) focal (HPF)” value ([1]; T-ZC, SUGEN 5416 20 mg/kg, control about 15 (FIG. 11)) was “about 13” and the “residual D-dimer retention” value ([1]; T-ZC, SUGEN 5416 systemic vs control (FIG. 12)) was “more residual D-dimer retention”. For the same molecule, the “average MVD at 200× magnification” value [2] was “about 30”, the “gross appearance of chambers (influx of blood vessels)” value ([3]; F-ZC at harvest day 12, SU5416 vs controls (FIGS. 17A, 17B)) was “distinctly paler color; also recorded: paler in color” and the “collagen deposition (MT stain)” value ([3]; F-ZC granulation tissue, SU5416 20 mg/kg IP, p=0.0006, 20 mg/kg) was “distinctly decreased collagen deposition; also recorded: collagen was decreased”. The “reduction in microvessel density vs controls” value ([3]; F-ZC, SU5416 20 mg/kg IP, day 12, p=0.0009) was 10%, the “reduction of granulation tissue (depth) vs controls” value ([3]; F-ZC, SU5416 20 mg/kg IP, day 12, p=0.0076) was 45% and the granulation tissue formation ([3]; F-ZC, SU5416 20 mg/kg vs control, listed as SUGEN 5416) was “inhibited granulation tissue formation”. For the same molecule, the “decrease in collagen deposition (semi-quantitative, MT)” value ([3]; F-ZC, SU5416 treated vs controls) was greater than 70%, the “residual D-dimer retention” value ([3]; F-ZC) was “remained elevated” and the “residual D-dimer retention” value ([3]; F-ZC, listed as SUGEN 5416) was “increase in residual D-dimer retention”. The neovascularization ([3]; F-ZC, SUGEN 5416 20 mg/kg vs control) was “inhibited neovascularization”, the “average depth of granulation tissue” value ([3]; F-ZC, SUGEN 5416 20 mg/kg, magnification 10×, control about 45 mm, p=0.0076) was “about 25 mm” and the “D-dimer levels in chambers” value ([3]; F-ZC, SUGEN 5416, after 10-12 days of implantation, control about 4,000 ng/ml) was “about 13,000 ng/ml”. For the same molecule, the body weight loss ([3]; 20 mg/kg) was “maintained their pre-treatment weights”, the body weight loss ([3]; listed as SUGEN 5416) was “no significant body weight loss” and the D-Dimer ([3]; Table 1, F-ZC tissue lysates (pooled), SU5416, control 4100 ± 100) was 185 ± 20 ng/mL. It also gave a Granulation ([3]; Table 1, F-ZC, SU5416 20 mg/kg IP, day 12, ± standard error of mean, control 466.7 ± 51.9) of 256.8 ± 42.9, a Collagen ([3]; Table 1, F-ZC, SU5416, semi-quantitative scale of 0-4, ± SEM, control 1.75 ± 0.25) of 0.5 ± 0.18 and a Microvessel ([3]; Table 1, F-ZC, SU5416, ± SEM, control 28.17 ± 0.42) of 26.25 ± 0.53. For the same molecule, the “Difference, Microvessel” value ([3]; Table 1, SU5416 vs control) was 10%, p = 0.006,, the “Difference, D-Dimer” value [3, 5] was 96%, n = 10 and the “Difference, Collagen” value ([3]; Table 1, SU5416 vs control, p = 0.001) was 72%, p = 0.001,. For the same molecule, the “Difference, Granulation” value ([3]; Table 1, SU5416 vs control, p = 0.006) was 45%, p = 0.006,.
angiostatin was tested, and the healing response ([4]; 1 μM angiostatin in chamber) was “reduction in healing response”, the “gross appearance of chambers (influx of blood vessels)” value ([4]; 1 μM angiostatin in chamber vs controls (FIGS. 20A, 20B)) was “paler in color” and the “granulation tissue formation (depth)” value ([4]; 1 μM angiostatin in chamber vs controls (FIGS. 20C, 20D, 21)) was “granulation tissue in controls (FIG. 20C) is distinctly more than angiostatin treated chambers; also recorded: inhibited granulation tissue formation”.
